According to patent US20220226499A1, “Metabolite Delivery for Modulating Metabolic Pathways of Cells” (Arizona Board of Regents on Behalf of Arizona State …, priority 2019, published 2022):

Tests used:
DCs [1] = assay: DC activation and cytokine expression by flow cytometry; type: cell-based, C57BL/6j mice; conditions: for CD86 expression in CD11c+ cells: equivalent amount as PaKG MPs, vs no treatment control and PaKG MP condition
Description: Briefly, femur and tibia from mice were isolated and kept in wash media composed of DMEM/F-12 (1:1) with L-glutamine, 10% fetal bovine and 1% penicillin-streptomycin. The ends of the bones were cut, and bone marrow was flushed out with 10 mL wash media and mixed to make a homogeneous suspension. Red blood cells were lysed by incubating and resuspending the pellet in 3 mL 1× red blood cell (RBC) lysis buffer for 3 minutes at 4° C. The cell suspension was then washed twice with wash media and re-suspended in DMEM/F-12 with L-glutamine, 10% fetal bovine serum, 1% sodium pyruvate, 1% non-essential amino acids (VWR, Radnor, Pa.), 1% penicillin-streptomycin and 20 ng/ml GM-CSF (DC media). All % values shown here are vol/vol. This cell suspension was then seeded in a tissue culture-treated T-75 flask (day 0). After 48 hours (day 2), floating cells were collected, centrifuged, re-suspended in fresh media and seeded on low attachment plates for 6 additional days. Half of the media was changed every alternate day. At the end of 6 days (day 8), cells were lifted from the low attachment wells by gentle pipetting, re-suspended and seeded on tissue culture-treated polystyrene plates for 2 more days before treating them. […] Purity, yield, and immaturity of DCs (CD11c, MHC-II and CD86) were verified via immunofluorescence staining and flow cytometry. Dendritic cells were isolated from at least 3 separate mice for each experiment.

DCs [2] = assay: Seahorse Assay (ECAR and OCR)
Description: Lipopolysaccharide (LPS) was used as a positive control, and no treatment was used as a negative control.
Sequential injections were performed with D-glucose (10 mM), oligomycin (1 mM), and 2-deoxyglucose (100 mmol/L). The extracellular acidification rates (ECAR) after the injection of D-glucose was a measure of glycolysis, and the ECAR after the injection of oligomycin represented maximal glycolytic capacity. Non-glycolytic activity was quantified by the measure of ECAR after the injection of 2-deoxyglucose. Samples were analyzed with 10 technical replicates.
For oxidative phosphorylation, 24 hours after cell seeding, media was changed to unbuffered DMEM containing 2 mM glutamine, 1 mM pyruvate, and 10 mM glucose. […] The oxygen consumption rate (OCR) after the injection of oligomycin was a measure of ATP-linked respiration and the OCR after the injection of FCCP represented maximal respiratory capacity. Basal respiration was quantified by the measure of OCR prior to the injection of oligomycin. Samples were analyzed with 10 technical replicates.

Compound | CD86 expression in CD11c+ cells (DCs [1]) | glycolysis levels compared to PaKG MPs (DCs [2]; DCs) | glycolysis (DCs [2]; vs no treatment control (PaKG MPs also vs LPS)) | frequency of MHC-II+CD86+ in DCs (DCs [1]; vs untreated immature DCs)
OCCCCCCCCCCO [1,10-decanediol] | did not significantly change |  |  | 
O=C(O)CCC(=O)C(=O)O [soluble aKG, alpha-ketoglutarate] | did not significantly change | higher | decreased | 
Lipopolysaccharide [LPS] |  |  |  | significantly upregulated
